Consider 7 compounds from patent US7427623B2, “4-Amino-2,3-disubstituted thieno[2,3-d]pyrimidines and pharmacetical compositions thereof” (SmithKline Beecham Corporation, priority 2001, dated 2008).

Some results are limits rather than exact numbers.

One experiment concerns the target T1, Recombinant GST-Tie2 (Homo sapiens, UniProt Q02763).
T1 construct: GST
The experiment in a line: Tie2 Fluorescence Polarization Kinase Activity Assay (TIE2-FP). The experiment is classed as biochemical. The conditions noted are these: 200 μM ATP, activated Tie2, fluorescence polarization.

The target in experiment [1] is T2, GST-TIE2 (intracellular domains of human TIE2) (Homo sapiens, UniProt Q02763).
T2 construct: made in house
T2 sequence (Q02763 762-1104): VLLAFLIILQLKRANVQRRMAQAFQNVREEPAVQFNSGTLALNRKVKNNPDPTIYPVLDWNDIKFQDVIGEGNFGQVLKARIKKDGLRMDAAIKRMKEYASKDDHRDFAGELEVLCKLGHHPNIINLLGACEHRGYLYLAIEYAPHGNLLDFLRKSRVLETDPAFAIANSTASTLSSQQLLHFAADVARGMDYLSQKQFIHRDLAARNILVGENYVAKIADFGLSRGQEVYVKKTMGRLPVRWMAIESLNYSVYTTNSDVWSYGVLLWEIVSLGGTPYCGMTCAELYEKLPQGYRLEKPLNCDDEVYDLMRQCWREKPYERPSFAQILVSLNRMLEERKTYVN
In words: TIE-2 Enzyme assay (TIE2-E), LANCE method. In kind it is biochemical. The conditions noted are these: GST-TIE2, 80 uM ATP, D1–15 peptide; for IC50: read-out: TIE2-E pIC50 (converted). The method, then:
TIE-2 Enzyme assay (TIE2-E)
Preactivated GST-TIE2 was incubated for 30 mins at room temperature in 96 well plates with 1 uM D1–15 peptide, 80 uM ATP, 10 mM MgCl2, 0.1 mg/ml BSA and the test compound (diluted from a 10 mM stock in DMSO, final DMSO concentration was 2.4%) in 1 mM HEPES (pH 7.4). The reaction was stopped by the addition of EDTA (final concentration 45 mM). Streptavidin linked-APC (allophycocyanin, Molecular Probe) and Europium-labeled anti-phosphorylated tyrosine antibody (Wallac) were then added at the final concentration of 17 ug/well and 2.1 ug/well, respectively. The APC signal was measured using an ARVO multilabel counter. (Wallac Berthold Japan). The percent inhibition of activity was calculated relative to blank control wells. […] The IC50 values were converted to pIC50 values, i.e., −log IC50 in Molar concentration.
Background: In TR-FRET formats the signal depends on donor and acceptor labels being close together.

Experiment [2] concerns the target T3, TIE2 intracellular domain/c-fms extracellular domain (TIE2/c-fms) chimeric protein (Homo sapiens, UniProt Q02763).
T3 construct: TIE2 intracellular domain/c-fms extracellular domain (TIE2/c-fms) chimeric protein; expressed in transfected cells; host or cells: mouse 3T3 cells
The experiment in a line: TIE-2 Autophosphorylation Assay (TIE2-C), ELISA. The experiment is classed as cell-based. Conditions: TIE2/c-fms expressing mouse 3T3 cells, MCSF activation; for IC50: read-out: TIE2-C pIC50 (converted). The method, then: TIE-2 Autophosphorylation Assay (TIE2-C)
The TIE-2 autophosphorylation assay used an ELISA method and a TIE2 intracellular domain/c-fms extracellular domain (TIE2/c-fms) chimeric protein expressing mouse 3T3 cells. This assay measured the autophosphorylation level of TIE2 protein expressed in cells. The cells were cultured in high glucose DMEM (Sigma) containing 10% serum at 37° C. in a humidified 10% CO2, 90% air incubator. The test compound (diluted from a 10 mM stock in DMSO, final DMSO concentration was 0.1%) was incubated with TIE2/c-fms expressing cells for 1 hr in serum free DMEM in 96 well plates followed by the activation of TIE2/c-fms receptor using c-fms ligand, MCSF (macrophage colony stimulating factor). […] The cell extracts were transferred into Rat anti-c-fms antibody coated 96 well plates and incubated for 12 hrs at 4 degrees. The extracts were removed by aspiration and the plate was incubated with biotinylated anti-phosphotyrosine antibody, PT66 (Sigma) and then with HRP (Horseradish Peroxidase)-labeled streptavidin (PIERCE). The optical density at 450 nm derived from HRP catalyzed TMB was measured with an ARVO multilabel counter. (Wallac Berthold Japan). The percent inhibition of activity was calculated relative to blank control wells. […] The IC50 values were converted to pIC50 values, i.e., −log IC50 in Molar concentration.
Background: ELISA stands for enzyme-linked immunosorbent assay.

The target in a further experiment is T4, GST-VEGFR2 (Homo sapiens, UniProt P35968).
T4 construct: GST-VEGFR2, baculovirus expressed recombinant constructs of the intracellular domains of human TIE2 tagged by GST; made in house
T4 sequence (P35968 786-1356 limits assumed): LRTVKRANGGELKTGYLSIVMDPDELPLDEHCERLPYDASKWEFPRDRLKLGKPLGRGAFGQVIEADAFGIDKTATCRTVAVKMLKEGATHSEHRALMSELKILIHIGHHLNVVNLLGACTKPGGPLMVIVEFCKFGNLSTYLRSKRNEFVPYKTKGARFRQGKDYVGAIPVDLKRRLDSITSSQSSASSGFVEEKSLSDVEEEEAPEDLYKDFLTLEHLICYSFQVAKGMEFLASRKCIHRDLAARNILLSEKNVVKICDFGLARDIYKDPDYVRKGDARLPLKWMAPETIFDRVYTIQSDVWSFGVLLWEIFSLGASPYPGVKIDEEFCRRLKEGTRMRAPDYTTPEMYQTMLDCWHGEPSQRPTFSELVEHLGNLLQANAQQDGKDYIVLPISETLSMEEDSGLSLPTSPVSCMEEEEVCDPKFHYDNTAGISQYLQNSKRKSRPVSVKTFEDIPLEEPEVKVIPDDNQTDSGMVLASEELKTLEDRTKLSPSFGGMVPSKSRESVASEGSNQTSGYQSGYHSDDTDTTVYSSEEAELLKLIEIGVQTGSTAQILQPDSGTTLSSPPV
In words: VEGF-R2 Enzyme Assay (VEGF-E), LANCE method. The experiment is classed as biochemical. Conditions: GST-VEGFR2, 75 uM ATP; for IC50: read-out: VEGF-E pIC50 (converted). As for the experimental part: VEGF-R2 Enzyme Assay (VEGF-E)
The VEGF enzyme assay used the LANCE method (Wallac) and GST-VEGFR2, baculovirus expressed recombinant constructs of the intracellular domains of human […] tagged by GST. […] The reaction was stopped by the addition of EDTA (final concentration 50 mM). […] The APC signal was measured using an ARVO multilabel counter (Wallac Berthold, Japan). The percent inhibition of activity was calculated relative to blank control wells. […] The IC50 values were converted to pIC50 values, i.e., −log IC50 in Molar concentration.

The subject of experiment [3] is Human umbilical cord endothelial cells (HUVEC). The experiment in a line: VEGF-Driven Cellular Proliferation Assay, BrdU Incorporation Assay (VEGF-C). The experiment is classed as cell-based. Conditions: for IC50: Homo sapiens, read-out: VEGF-C pIC50 (converted). The method, then: VEGF-Driven Cellular Proliferation Assay. BrdU Incorporation Assay (VEGF-C)
Human umbilical cord endothelial cells (HUVEC, Clonetics, CC2519) were passaged in Type I collagen-coated 100-mm petridishes in EGM-MV medium (Clonetics, CC3125) at 37 C in a humidified 5% CO2, 95% air incubator. […] After incubation overnight at 37° C., the media were replaced with 100 ul of M199 serum-free medium containing compounds at various concentrations with 0.6% DMSO and gentamicin. The compounds were diluted in serum-free M199 medium from 10 mM stock solutions prepared in 100% DMS0. […] The cells were pulsed with bromodeoxyuridine (BrdU at 10 uM in serum-free M199) at 37° C. for an additional 24 h. […] The optical density at 450 nm was measured with a multilabel counter (ARVO SX, Wallac). The percent inhibition of cell growth was calculated relative to blank control wells. […] The IC50 values were converted to pIC50 values, i.e., −log IC50 in Molar concentration.

T3 sequence (Q02763 770-1124 limits assumed, change not shown): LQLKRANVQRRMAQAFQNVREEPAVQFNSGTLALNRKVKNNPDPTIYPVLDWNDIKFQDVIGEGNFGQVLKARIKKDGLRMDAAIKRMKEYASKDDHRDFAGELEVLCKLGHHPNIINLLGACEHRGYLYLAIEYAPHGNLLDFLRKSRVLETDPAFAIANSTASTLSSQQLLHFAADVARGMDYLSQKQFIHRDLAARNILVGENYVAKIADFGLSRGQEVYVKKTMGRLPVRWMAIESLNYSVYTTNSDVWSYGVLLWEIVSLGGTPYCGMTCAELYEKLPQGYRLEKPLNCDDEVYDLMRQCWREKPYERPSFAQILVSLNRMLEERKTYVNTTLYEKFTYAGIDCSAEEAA
T3 sequence (P07333 20-517 partner limits assumed): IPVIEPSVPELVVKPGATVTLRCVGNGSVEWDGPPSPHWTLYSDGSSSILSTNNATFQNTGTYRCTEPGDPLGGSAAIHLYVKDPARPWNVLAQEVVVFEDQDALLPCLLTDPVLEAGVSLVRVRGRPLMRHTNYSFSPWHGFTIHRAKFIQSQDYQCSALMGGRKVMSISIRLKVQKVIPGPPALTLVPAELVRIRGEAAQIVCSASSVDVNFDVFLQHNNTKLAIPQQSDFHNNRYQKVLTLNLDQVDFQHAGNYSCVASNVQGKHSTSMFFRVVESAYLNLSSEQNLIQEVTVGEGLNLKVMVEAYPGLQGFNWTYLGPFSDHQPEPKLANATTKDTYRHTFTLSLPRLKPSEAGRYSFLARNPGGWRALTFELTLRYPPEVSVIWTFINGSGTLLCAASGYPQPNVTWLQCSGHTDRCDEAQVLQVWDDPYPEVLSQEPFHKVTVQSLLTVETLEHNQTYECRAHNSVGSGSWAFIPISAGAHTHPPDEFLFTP
T3 sequence (P09603 33-190 partner limits assumed): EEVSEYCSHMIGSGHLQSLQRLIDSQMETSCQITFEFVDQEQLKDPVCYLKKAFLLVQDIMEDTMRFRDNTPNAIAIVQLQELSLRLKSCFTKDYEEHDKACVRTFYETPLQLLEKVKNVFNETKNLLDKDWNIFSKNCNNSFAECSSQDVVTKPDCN
T1 sequence (Q02763 23-1124): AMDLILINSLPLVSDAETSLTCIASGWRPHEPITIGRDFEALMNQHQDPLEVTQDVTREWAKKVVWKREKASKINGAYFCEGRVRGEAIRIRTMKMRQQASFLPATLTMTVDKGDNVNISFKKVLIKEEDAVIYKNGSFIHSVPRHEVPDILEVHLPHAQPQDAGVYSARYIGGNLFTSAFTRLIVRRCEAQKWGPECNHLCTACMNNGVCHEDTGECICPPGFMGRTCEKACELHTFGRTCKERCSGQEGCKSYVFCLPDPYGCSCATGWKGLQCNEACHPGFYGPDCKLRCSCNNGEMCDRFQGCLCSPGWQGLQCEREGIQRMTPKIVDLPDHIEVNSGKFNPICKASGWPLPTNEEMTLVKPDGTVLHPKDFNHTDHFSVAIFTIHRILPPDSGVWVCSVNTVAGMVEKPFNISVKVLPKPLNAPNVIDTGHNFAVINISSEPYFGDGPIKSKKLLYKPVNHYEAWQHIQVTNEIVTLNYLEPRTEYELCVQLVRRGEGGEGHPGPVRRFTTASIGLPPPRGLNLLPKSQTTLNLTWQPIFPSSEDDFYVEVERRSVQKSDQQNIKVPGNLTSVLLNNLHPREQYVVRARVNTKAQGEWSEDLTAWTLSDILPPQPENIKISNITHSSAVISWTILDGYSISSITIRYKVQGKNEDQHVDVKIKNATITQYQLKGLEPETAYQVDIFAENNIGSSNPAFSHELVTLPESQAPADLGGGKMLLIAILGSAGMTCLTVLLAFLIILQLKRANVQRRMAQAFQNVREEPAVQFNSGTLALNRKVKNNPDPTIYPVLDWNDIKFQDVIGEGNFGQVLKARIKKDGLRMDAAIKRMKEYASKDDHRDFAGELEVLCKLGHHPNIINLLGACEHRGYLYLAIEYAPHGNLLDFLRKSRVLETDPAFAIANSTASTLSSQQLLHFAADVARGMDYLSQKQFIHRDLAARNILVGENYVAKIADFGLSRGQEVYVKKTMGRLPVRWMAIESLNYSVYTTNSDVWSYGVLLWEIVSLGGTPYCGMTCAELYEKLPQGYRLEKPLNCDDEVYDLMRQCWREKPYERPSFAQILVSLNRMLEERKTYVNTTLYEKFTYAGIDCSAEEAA
Protocol for Recombinant GST-Tie2: Tie2 Fluorescence Polarization Kinase Activity Assay: (TIE2-FP)
Activation of Recombinant Tie2 Activation:
Recombinant GST-Tie2 was activated by incubating the enzyme in 20 mM Tris-HCl, pH 7.5, 12 mM MgCl2, 100 mM NaCl, 20 μM sodium vanidate, 1 mM DTT and 300 μM ATP at room temperature for 2 hours. […] The activated enzyme was stored as aliquots at −80° C. in 20 mM Tris-HCl, pH 7.5 and 11 mM NaCl.
The final assay conditions were 50 mM HEPES, pH 7.5, 5% DMSO (when screening compounds), 200 μM ATP, 5 mM MgCl2, 1 mM DTT, 50 μM sodium vanidate, 1 nM activated enzyme, and 200 μM peptide. […] Panvera Anti-phosphotyrosine antibody (Cat#P2840) and PTK Green Tracer (Cat#P2842) were used to detect the phosphorylated peptide. […] IC50's were then determined from the % polarization using normal calculation methods.

Regarding `Nc1ncnc2scc(-c3ccc(NC(=O)Nc4cc(C(F)(F)F)ccc4F)cc3)c12` [Example 276, 4-Amino-3-(4-((2-fluoro-5-(trifluoromethyl)phenyl)aminocarbonylamino)phenyl)thieno[2,3-d]pyrimidine], the IC50 on Recombinant GST-Tie2 was determined as 1.8 nM.

On to `COc1ccc(-c2oc3ncnc(N)c3c2-c2ccc(-c3ccccc3)cc2)cc1NS(C)(=O)=O` [Example 189, 4-Amino-3-(4-biphenyl)-2-(4-methoxy-3-(methylsulfonylamino)phenyl)furo[2,3-d]pyrimidine], for which the IC50 in experiment [1] is 100 to 1000 nM; in experiment [2], 100 to 1000 nM; on GST-VEGFR2, below 100 nM; in experiment [3] it was 1000 to 10000 nM.

Consider “4-Amino-3-(4-(2-pyridyl)phenyl)-2-(3-sulfamoylphenyl)furo[2,3-d]pyrimidine [Example 206]”, for which the “TIE2-E pIC50” value in experiment [1] is “++ (++ = pIC50 of 6.0–7.0)”. In addition, the “TIE2-C pIC50” value in experiment [2] is “++ (++ = pIC50 of 6.0–7.0)”. The “VEGF-E pIC50” value on GST-VEGFR2 was “+++ (+++ = pIC50 of >7.0)”. Besides, the “VEGF-C pIC50” value in experiment [3] is “+ (+ = pIC50 of 5.0–6.0)”.

For `Nc1ncnc2oc(-c3cccc(S(N)(=O)=O)c3)c(-c3ccc(-c4ccccc4)cc3)c12` [Example 166, 4-Amino-3-(4-biphenyl)-2-(3-sulfamoylphenyl)furo[2,3-d]pyrimidine], the IC50 is 100 to 1000 nM in experiment [1], 100 to 1000 nM in experiment [2], below 100 nM at GST-VEGFR2 and 1000 to 10000 nM in experiment [3].

In the case of `Nc1ncnc2oc(-c3ccoc3)c(-c3ccco3)c12` [Example 15], the “TIE2-E pIC50” value in experiment [1] is on record as “+ (+ = pIC50 of 5.0–6.0)”. Also, the “TIE2-C pIC50” value in experiment [2] was “+ (+ = pIC50 of 5.0–6.0)”. Further, the “VEGF-E pIC50” value at GST-VEGFR2 was “++ (++ = pIC50 of 6.0–7.0)”. Further, in experiment [3], the “VEGF-C pIC50” value is listed as “+ (+ = pIC50 of 5.0–6.0)”.

For `NC(=O)Nc1ccc(-c2oc3ncnc(N)c3c2-c2ccc(-c3ccccc3)cc2)cc1` [Example 192, 4-Amino-3-(4-biphenyl)-2-(4-(aminocarbonylamino)phenyl)furo[2,3-d]pyrimidine], the IC50 in experiment [1] was 100 to 1000 nM; in experiment [2] it was 100 to 1000 nM; on GST-VEGFR2, below 100 nM; in experiment [3] it was 1000 to 10000 nM.

`NC(=O)c1cccc(-c2oc3ncnc(N)c3c2-c2ccc(-c3ccccc3)cc2)c1` [Example 131, 4-Amino-3-(4-biphenyl)-2-(3-carbamoylphenyl)furo[2,3-d]pyrimidine]: the IC50 was 100 to 1000 nM in experiment [1], 100 to 1000 nM in experiment [2], 100 to 1000 nM at GST-VEGFR2 and 1000 to 10000 nM in experiment [3].
